This is an account of results in ChEMBL document CHEMBL3046263, “Isolation, characterization, antibacterial, antihelminthic, and in silico studies of polyprenol from Kirganelia reticulata Baill” (2013).

Values after ≈ are worked out from the molar mass of the structure shown.

What all share (assay type): functional
Test [1] has as its system Escherichia coli. As to the kind of experiment: Antibacterial activity against Escherichia coli after 24 hr by microbroth dilution method. (Dilution methods test growth across graded concentrations, often in twofold steps.)
Test [2] concerns Salmonella typhi. As to the kind of experiment: Antibacterial activity against Salmonella enterica subsp. enterica serovar Typhi assessed after 24 hr by microbroth dilution method.
Test [3] relates to Pseudomonas aeruginosa. The experiment in a line: Antibacterial activity against Pseudomonas aeruginosa after 24 hr by microbroth dilution method.
Test [4] has as its system Staphylococcus aureus. As to the kind of experiment: Antibacterial activity against Staphylococcus aureus after 24 hr by microbroth dilution method.
For test [5], the system named is Escherichia coli. As to the kind of experiment: Antibacterial activity against Escherichia coli assessed as diameter of growth inhibition zone at 100 mg/ml after 24 hr by agar well diffusion method. The conditions noted are these: read-out: DIZ. On the technique in general: A growth-free zone around the sample is the usual read-out of agar diffusion tests.
In test [6] the test system is Salmonella typhi. The experiment in a line: Antibacterial activity against Salmonella enterica subsp. enterica serovar Typhi assessed as diameter of growth inhibition zone at 100 mg/ml after 24 hr by agar well diffusion method. The following applies: read-out: DIZ.
Test [7] has as its system Pseudomonas aeruginosa. As to the kind of experiment: Antibacterial activity against Pseudomonas aeruginosa assessed as diameter of growth inhibition zone at 100 mg/ml after 24 hr by agar well diffusion method. The following applies: read-out: DIZ.
In test [8] the test system is Staphylococcus aureus. The experiment in a line: Antibacterial activity against Staphylococcus aureus assessed as diameter of growth inhibition zone at 100 mg/ml after 24 hr by agar well diffusion method. The conditions noted are these: read-out: DIZ.
The subject of test [9] is Metaphire posthuma. As to the kind of experiment: Antihelminthic activity against Pheretima posthuma assessed as paralysis time at 50 mg/ml (reference value: 63.33 +/-0.87 min).
Test [10] concerns Metaphire posthuma. The experiment in a line: Antihelminthic activity against Pheretima posthuma assessed as death time at 50 mg/ml (reference value: 198.33 +/-2.61 min).
Test [11] concerns Metaphire posthuma. As to the kind of experiment: Antihelminthic activity against Pheretima posthuma assessed as paralysis time at 200 mg/ml (reference value: 63.33 +/-0.87 min).
Test [12] deals with Metaphire posthuma. The experiment in a line: Antihelminthic activity against Pheretima posthuma assessed as paralysis time at 150 mg/ml (reference value: 63.33 +/-0.87 min).
Test [13] deals with Metaphire posthuma. The experiment in a line: Antihelminthic activity against Pheretima posthuma assessed as paralysis time at 100 mg/ml (reference value: 63.33 +/-0.87 min).
For test [14], the system named is Metaphire posthuma. As to the kind of experiment: Antihelminthic activity against Pheretima posthuma assessed as death time at 200 mg/ml (reference value: 198.33 +/-2.61 min).
For test [15], the system named is Metaphire posthuma. As to the kind of experiment: Antihelminthic activity against Pheretima posthuma assessed as death time at 150 mg/ml (reference value: 198.33 +/-2.61 min).
Test [16] concerns Metaphire posthuma. As to the kind of experiment: Antihelminthic activity against Pheretima posthuma assessed as death time at 100 mg/ml (reference value: 198.33 +/-2.61 min).

As to `O=C(O)c1cn(C2CC2)c2cc(N3CCNCC3)c(F)cc2c1=O` [CIPROFLOXACIN], the minimal bactericidal concentration (MBC) with Escherichia coli [1] was determined as 12.5 mg/L (≈ 37.7 µM); against Salmonella typhi [2], 6.25 mg/L (≈ 18.9 µM); in the test on Pseudomonas aeruginosa [3], 6.25 mg/L (≈ 18.9 µM); in the test with Staphylococcus aureus [4], 12.5 mg/L (≈ 37.7 µM). For the same compound, the minimum inhibitory concentration (MIC) in the test on Salmonella typhi [2] worked out at 3.12 mg/L (≈ 9.43 µM). Also, the zone of inhibition at 100000 µg/mL is 10.2 mm with Escherichia coli [5], 29 mm in the test on Salmonella typhi [6], 31.8 mm in the test on Pseudomonas aeruginosa [7] and 18.1 mm in the test with Staphylococcus aureus [8].
As for `C1CNCCN1.C1CNCCN1.C1CNCCN1.O.O=C(O)CC(O)(CC(=O)O)C(=O)O.O=C(O)CC(O)(CC(=O)O)C(=O)O` [PIPERAZINE CITRATE], the Time in the test with Metaphire posthuma [9] was found to be 32.44 min; in the test on Metaphire posthuma [10], 40.72 min.
As to `C/C(=C/CC/C=C/CO)CC/C=C(/C)CC/C=C(\C)CO` [POLYPRENOL], the Time in the test with Metaphire posthuma [11] is on record as 36.17 min; in the test on Metaphire posthuma [12], 39.63 min; with Metaphire posthuma [13] it was 43.37 min; in the test with Metaphire posthuma [9] it was 51.57 min; with Metaphire posthuma [14] it was 44.47 min; in the test with Metaphire posthuma [15], 48.5 min. The Time in the test with Metaphire posthuma [16] stood at 55.13 min; in the test on Metaphire posthuma [10], 81.7 min. The minimum bactericidal concentration (MBC) turned out to be 25 mg/L (≈ 85.5 µM) in the test with Escherichia coli [1], 12.5 mg/L (≈ 42.7 µM) against Salmonella typhi [2], 12.5 mg/L (≈ 42.7 µM) with Pseudomonas aeruginosa [3] and 25 mg/L (≈ 85.5 µM) in the test on Staphylococcus aureus [4]. For the same compound, the MIC against Escherichia coli [1] amounted to 12.5 mg/L (≈ 42.7 µM); in the test on Salmonella typhi [2] it was 6.25 mg/L (≈ 21.4 µM); with Pseudomonas aeruginosa [3], 6.25 mg/L (≈ 21.4 µM); against Staphylococcus aureus [4], 12.5 mg/L (≈ 42.7 µM). The zone of inhibition at 100000 µg/mL with Escherichia coli [5] amounted to 5.6 mm; in the test with Salmonella typhi [6] it was 13.1 mm; in the test with Pseudomonas aeruginosa [7] it was 14.7 mm; in the test with Staphylococcus aureus [8] it was 9.1 mm.

The MBC is the lowest tested concentration that kills the bacteria rather than only halting them. A lower MBC goes with more potent killing. The MIC is the lowest concentration found to suppress growth.
